Data on 4 compounds can be found in patent publication US5332818A, “Immunosuppressive agent and process of producing the same” (Toray Industries, Inc., priority 1989, dated 1994).

In one data set the test system is mouse spleen cells. As to the kind of experiment: Suppression of mitogen (ConA) reaction. In kind it is cell-based, C57BL/6 mouse. To be noted: 48 hours, 3 cases, read-out: Suppression Rate of Mitogen Reaction; for inhibition at 1 µg/mL: 1 μg/ml; for inhibition at 10 µg/mL: 10 μg/ml; for inhibition at 50 µg/mL: 50 μg/ml. How it is done: If mouse spleen cells are cultured in vitro in the presence of concanavalin A (hereinafter referred to as "ConA" for short), the cells are divided and proliferated (mitogen reaction). In this system, the immunosuppressive agent of the present invention or cyclosporin A as a comparative example was added to the culture medium and the effects to the mitogen reaction were examined.
More particularly, C57BL/6 mouse was sacrificed and the spleen was removed. The spleen cells were suspended in RPMI 1640 culture medium containing 10% fetal calf serum (hereinafter referred to as "RPMI 1640" for short) so as to prepare a spleen cell suspension (5×10^6 cells/ml). In the wells of a flat-bottomed 96-well microplate, 100 μl of the suspension was placed and then 50 μl of RPMI 1640 containing ConA (4 μg/ml) as well as 50 μl of RPMI 1640 containing the test compound in the concentration shown in Table 2 were added. The cells were cultured for 48 hours (37° C. 5%CO2) As a control, 50 μl of RPMI 1640 was added. Eight hours before the termination of the culture, 2 μ Ci of [^3 H] thymidine was […], added. After termination of the culture, the cells were collected on a filter paper by using a cell harvester. After drying the filter paper, the filter paper was placed in a vial containing toluene-based scintillator and the radioactivity was measured by a liquid scintillation counter.
The suppression rate of mitogen reaction was calculated according to the following equation: [formula]

The next data set has as its target T1, κ receptor (Cavia porcellus, UniProt P41144).
T1 construct: from tissue; host or cells: guinea pig ileum, isolated, electrically stimulated
As to the kind of experiment: Antagonism of EKC (κ) in electrically stimulated isolated organ. It is filed as cell-based, Guinea pig. To be noted: for concentration dependency of antagonistic activity: κ receptor, FIGS. 1 and 2; for Slope / γ / Kb: κ, in vitro; for Kb: NLI value is mean ± S.E., read-out: pA2 (50% Confidence Limit) (converted). As to the method:
(§1) The term "δ-opioid antagonist" herein used-means a group of compounds which suppress the inhibition by DADLE or DPDPE of contraction of MVD specimen caused by electric stimulation.
(§2) Ke=[antagonist]/(IC50 ratio -1)
(§3) The IC50 ratio used herein is the value obtained by dividing the IC50 of an agonist, which is measured in the presence of an antagonist, with the IC50 value of the […], that is measured in the absence of the antagonist. Ke value is a value which is introduced for compensating the concentration of antagonist when comparing the IC50 ratio. Thus, the smaller the Ke value, the stronger the antagonist activity.
(§4) The antagonistic activities of the naloxindole hydrochloride and the naltrindole methanesulfonic acid salt obtained in Examples 1 and 3 were determined by the following method:
(§5) Guinea pig ileum (containing μ and κ receptors) and mouse vas deferens were taken out and the organs were subjected to electric stimulations. The activities of the compounds for inhibiting the suppression of contraction of the organs by three agonists, that is, morphine (μ), EKC (κ) and DADLE (δ) were measured.

Another data set has as its target T2, δ receptor (Mus musculus, UniProt P32300).
T2 construct: from tissue; host or cells: mouse vas deferens, isolated, electrically stimulated
Briefly: Antagonism of DADLE (δ) in electrically stimulated isolated organ (vas deferens). In kind it is cell-based. The note with it: for κ/δ / μ/δ: Ke selectivity ratio; for κ/δ / μ/δ / selectivity to the δ receptors with respect to κ receptors / selectivity to the δ receptors with respect to μ receptors: Table 1; for concentration dependency of antagonistic activity: δ receptor, FIGS. 1 and 2; for Slope / γ / Kb: δ, in vitro; for Kb: read-out: pA2 (50% Confidence Limit) (converted). How it is done:
as §1, §2, §3, §4, §5

The target of another data set is T3, μ receptor (Cavia porcellus, UniProt A0ACM8Q262).
T3 construct: antagonism of morphine
As to the kind of experiment: Antagonism of morphine (μ) in electrically stimulated isolated organ. It is filed as cell-based, Guinea pig. The note with it: for concentration dependency of antagonistic activity: μ receptor, FIGS. 1 and 2; for Slope / γ / pA2 (50% Confidence Limit): μ, in vitro; for pA2 (50% Confidence Limit): NLI value is mean ± S.E. How it is done:
as §1, §2, §3, §4, §5

In the next data set the test system is spleen cells. Briefly: Suppression of MLR reaction. It is filed as cell-based, mouse (C57BL/6 and mitomycin-treated Balb/c). To be noted: for inhibition at 1 µg/mL / inhibition at 10 µg/mL / inhibition at 50 µg/mL: Mus musculus, 72 hours, 3 cases, NTI, NTB, NLI as hydrochloric acid salt, read-out: Suppression Rate of MLR Reaction; for inhibition at 1 µg/mL: 1 μg/ml; for inhibition at 10 µg/mL: 10 μg/ml; for inhibition at 50 µg/mL: 50 μg/ml; for MLR reaction: in words, hydrochloric acid salts. As to the method: If spleen cells from two different lines of mouse which are genetically different, the spleen cells recognize the other type of cells, and the cells are divided and proliferated (MLR reaction).
In this system, hydrochloric acid salt of NTI, NTB or NLI, or for comparison, cyclosporine A was added to the reaction medium and their effect to the MLR reaction was examined.
Balb/c mouse was sacrificed and the spleen was removed. The spleen cells were suspended in RPMI 1640 to prepare a spleen cell suspension (1×10^7 cells/ml). The spleen cells were then cultured in mitomycin C-containing RPMI 1640 for 30 minutes (37° C.) so as to carry out the mitomycin treatment. On the other hand, C57BL/6 mouse was sacrificed and spleen cell suspension (1×10^6 cells/ml) was prepared using RPMI 1640.
In the wells of a 96-well flat-bottomed microplate, 100 μl of C57BL/6 mouse spleen cell suspension, 50 μl of mitomycin-treated Balb/c mouse spleen cell suspension and 50 μl of RPMI 1640 containing the test compound were placed and the cells were cultured for 72 hours (37° C., 5%CO2). As a control, 50 μl of RPMI 1640 was added. Eight hours before the termination of the culture, 2 μCi of [^3 H] thymidine was added. After termination of the culture, the cells were collected on a filter paper by using a cell harvester. After drying the filter paper, the filter paper was placed in a vial containing toluene-based scintillator and the radioactivity was measured by a liquid scintillation counter.
The suppression rate of MLR reaction was calculated according to the following equation: [formula]

The conditions of data set [1]: in words; cited from earlier work.
The conditions of data set [2]: in words; cited from earlier work. This is another data set of the same source.
In data set [3] the test system is graft versus host reaction. As to the kind of experiment: Suppression of graft versus host reaction. In kind it is in vivo, mouse (BDF1; C57BL/6 spleen cells). The note with it: oral; for Suppression Rate of Graft versus Host Reaction: 100 mg/kg, once a day for 5 days, lymph node weight day 7, 4 cases, ** significance level < 0.02 (NTB), * < 0.05 (NTI); for graft versus host reaction: in words. As to the method:
It is known that a graft versus host reaction occurs when spleen cells of a parent are transplanted to F1 mouse. In this system, NTI, NTB or cyclosporine A was administered to F1 mouse and the effects of these compounds on the graft versus host reaction were examined.
C57BL/6 mouse was sacrificed and the spleen was removed. Using phosphate buffered saline, a suspension of spleen cells (2×10^8 cells/ml) was prepared. To plantar of left hind leg of BDF1 mice, 50 μl of this spleen cell suspension was subcutaneously injected. From the day of this injection, each test compound was administered once a day for 5 days. The dose was 100 mg/kg and suspensions of the test compounds in 0.5% carboxymethyl cellulose (hereinafter referred to as "CMC") were orally administered. To the control group, 0.5% CMC alone was administered in the same manner. On the 7th day from the day of injection of the spleen cells, the mice were sacrificed and popliteal lymph nodes of right and left hind legs were removed and the weight of the lymph nodes was measured. The difference between the weight of the lymph nodes of the right and left hind legs was calculated and the difference was used as an index of the graft versus host reaction. The obtained results were analyzed by Student's t-test.
The suppression rate of graft versus host reaction was calculated according to the following equation: [formula]

T3 sequence (A0ACM8Q262 1-400): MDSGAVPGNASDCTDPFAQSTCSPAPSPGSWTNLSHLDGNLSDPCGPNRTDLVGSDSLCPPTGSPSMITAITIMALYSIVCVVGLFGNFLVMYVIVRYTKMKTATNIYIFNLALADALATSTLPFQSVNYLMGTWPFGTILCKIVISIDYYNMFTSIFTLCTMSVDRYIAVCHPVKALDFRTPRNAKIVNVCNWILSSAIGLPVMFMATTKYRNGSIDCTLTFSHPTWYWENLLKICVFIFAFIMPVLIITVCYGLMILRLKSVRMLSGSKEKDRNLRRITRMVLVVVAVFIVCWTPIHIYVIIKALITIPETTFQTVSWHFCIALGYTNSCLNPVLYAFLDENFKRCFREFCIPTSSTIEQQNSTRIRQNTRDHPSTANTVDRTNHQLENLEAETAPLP
T2 sequence (P32300 whole entry): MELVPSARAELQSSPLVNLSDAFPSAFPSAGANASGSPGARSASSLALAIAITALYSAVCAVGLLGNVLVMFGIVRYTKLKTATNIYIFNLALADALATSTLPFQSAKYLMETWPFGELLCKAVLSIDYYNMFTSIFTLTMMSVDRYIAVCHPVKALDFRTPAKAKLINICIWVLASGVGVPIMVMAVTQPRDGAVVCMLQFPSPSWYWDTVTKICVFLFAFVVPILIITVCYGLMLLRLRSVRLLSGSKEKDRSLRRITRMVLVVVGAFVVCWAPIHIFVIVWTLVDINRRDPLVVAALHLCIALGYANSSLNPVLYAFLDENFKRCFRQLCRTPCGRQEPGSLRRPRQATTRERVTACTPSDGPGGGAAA
T1 sequence (P41144 whole entry): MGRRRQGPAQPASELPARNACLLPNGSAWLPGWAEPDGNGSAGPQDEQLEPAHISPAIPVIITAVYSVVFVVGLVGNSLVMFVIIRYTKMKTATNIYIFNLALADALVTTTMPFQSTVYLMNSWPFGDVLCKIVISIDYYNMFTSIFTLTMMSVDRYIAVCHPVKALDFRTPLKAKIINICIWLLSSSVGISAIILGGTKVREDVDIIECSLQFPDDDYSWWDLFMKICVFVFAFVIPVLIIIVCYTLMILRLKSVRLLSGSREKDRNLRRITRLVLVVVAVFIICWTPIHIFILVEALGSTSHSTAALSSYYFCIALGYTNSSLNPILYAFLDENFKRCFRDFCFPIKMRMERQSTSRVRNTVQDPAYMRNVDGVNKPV

Consider `C=CCN1CC[C@]23c4c5ccc(O)c4O[C@H]2c2[nH]c4ccccc4c2C[C@@]3(O)[C@H]1C5` [NLI, naloxindole], for which, in the data set with mouse spleen cells, the inhibition at 1 µg/mL stood at 12%, the inhibition at 10 µg/mL was 56% and the inhibition at 50 µg/mL is 100%. In addition, on κ receptor, the “concentration dependency of antagonistic activity” value (“concentration dependency” below) is “did not show dependency on the concentration”, the Slope worked out at 0.105, the γ came out at 0.149 and the Kb is 141 nM. Further, at δ receptor, the κ/δ is reported as 407, the μ/δ was determined as 251, the “selectivity to the δ receptors with respect to κ receptors” value is reported as “about 400 times” and the “selectivity to the δ receptors with respect to μ receptors” value is on record as “about 250 times”. Moreover, at δ receptor, the “concentration dependency” value was “concentration-dependent”, the Slope came out at 1.066, the γ worked out at 0.936 and the Kb was 0.55 nM. The “affinity to δ receptors” value on δ receptor (in words, NLI vs NTI) was “slightly inferior to NTI”. In addition, on μ receptor, the “concentration dependency” value is “did not show dependency on the concentration”, the Slope is reported as -0.063, the γ is listed as -0.062 and the “pA2 (50% Confidence Limit)” value was determined as 6.86 ± 0.01. For the same compound, in the data set with spleen cells, the inhibition at 1 µg/mL is 22%, the inhibition at 10 µg/mL came out at 95%, the inhibition at 50 µg/mL is 100% and the MLR reaction entry was “suppressed”.

In the case of `C=CC[C@@H]1/C=C(\C)C[C@H](C)C[C@H](OC)[C@H]2O[C@@](O)(C(=O)C(=O)N3CCCC[C@H]3C(=O)O[C@H](/C(C)=C/[C@@H]3CC[C@@H](O)[C@H](OC)C3)[C@H](C)[C@@H](O)CC1=O)[C@H](C)C[C@@H]2OC` [FK-506], the toxicity to liver result in data set [1] is recorded as “strong toxicity to liver”. In data set [2], the toxicity to kidney entry was “stronger toxicity to kidney than cyclosporine A”.

In the case of `Oc1ccc2c3c1O[C@H]1c4[nH]c5ccccc5c4C[C@@]4(O)[C@@H](C2)N(CC2CC2)CC[C@]314` [NTI, naltrindole], in the data set on mouse spleen cells, the inhibition at 1 µg/mL stood at 12%, the inhibition at 10 µg/mL is 77% and the inhibition at 50 µg/mL turned out to be 100%. Further, on κ receptor, the “concentration dependency” value is listed as “increases proportionally with its concentration”, the Slope came out at 1.807, the γ is 0.941 and the Kb is 43.7 nM. For the same compound, at δ receptor, the κ/δ amounted to 104, the μ/δ was 91, the “selectivity to the δ receptors with respect to κ receptors” value is “about 100 times” and the “selectivity to the δ receptors with respect to μ receptors” value is listed as “about 100 times”. In addition, at δ receptor, the “concentration dependency” value was “increases proportionally with its concentration”, the Slope amounted to 1.354, the γ turned out to be 0.863 and the Kb is 0.417 nM. For the same compound, in data set [3], the “Suppression Rate of Graft versus Host Reaction” value is 47% and the “graft versus host reaction” value was “suppressed”. In addition, at μ receptor, the “concentration dependency” value is on record as “increases proportionally with its concentration”, the Slope is 1.330, the γ was determined as 0.791 and the “pA2 (50% Confidence Limit)” value is reported as 7.42 (7.26-7.58). In addition, in the data set with spleen cells, the inhibition at 1 µg/mL worked out at 0%, the inhibition at 10 µg/mL was found to be 100%, the inhibition at 50 µg/mL worked out at 100% and the MLR reaction result is recorded as “suppressed”.

For the compound `Oc1ccc2c3c1O[C@H]1c4oc5ccccc5c4C[C@@]4(O)[C@@H](C2)N(CC2CC2)CC[C@]314` [NTB, naltrbenzofuran], in the data set with mouse spleen cells, the inhibition at 1 µg/mL was 14%, the inhibition at 10 µg/mL was found to be 41% and the inhibition at 50 µg/mL was found to be 100%. In addition, in data set [3], the “Suppression Rate of Graft versus Host Reaction” value came to 44% and the “graft versus host reaction” value is on record as “suppressed”. Moreover, in the data set on spleen cells, the inhibition at 1 µg/mL is 5%, the inhibition at 10 µg/mL came out at 81%, the inhibition at 50 µg/mL was 100% and the MLR reaction entry is reported as “suppressed”.
